Laboratory results from patent US20220041583A1, “IMMUNOMODULATORS, COMPOSITIONS AND METHODS THERE OF” (BETTA PHARMACEUTICALS CO., LTD, priority 2018, published 2022).
Where a name gives a salt, the structure may show the parent alone.

target: T1, PD-1/PD-L1 (Homo sapiens, UniProt Q9NZQ7); assay: PD-1/PD-L1 homogenous time-resolved fluorescence (HTRF) binding assay; settings: Table 6, class symbols
T1 construct: Recombinant human PD-L1 protein (19-238) with a His-tag at the C-terminus; purchased AcroBiosystems PD1-H5229 (PD-L1); PD1-H5257 (PD-1)
Method: Resolved Fluorescence (HTRF) Binding Assay
The assays were conducted in a standard black 384-well polystyrene plate with a final volume of 20 μL. Inhibitors were first serially diluted in DMSO and then added to the plate wells before the addition of other reaction components. The final concentration of DMSO in the assay was 1%. The assays were carried out at 25° C. in the PBS buffer (pH 7.4) with 0.05% Tween-20 and 0.1% BSA. Recombinant human PD-L1 protein (19-238) with a His-tag at the C-terminus was purchased from AcroBiosy stems (PD1-H5229). Recombinant human PD-1 protein (25-167) with Fc tag at the C-terminus was also purchased from AcroBiosystems (PD1-H5257). PD-L1 and PD-1 proteins were diluted in the assay buffer and 10 μL was added to the plate well. Plates were centrifuged and proteins were preincubated with inhibitors for 40 min. The incubation was followed by the addition of 10 μL of HTRF detection buffer supplemented with Europium cryptate-labeled anti-human IgG (PerkinElmer-AD0212) specific for Fc and anti-His antibody conjugated to SureLight®-Allophycocyanin (APC, PerkinElmer-AD0059H). After centrifugation, the plate was incubated at 25° C. for 60 min. Before reading on a PHERAstar FS plate reader (665 nm/620 nm ratio). Final concentrations in the assay were […] PD1, 10 nM PD-L1, 1 nM europium anti-human IgG and 20 nM anti-His-Allophycocyanin. IC50 determination was performed by fitting the curve of percent control activity versus the log of the inhibitor concentration using the GraphPad Prism 5.0 software.

T1 sequence (Q9NZQ7 19-238): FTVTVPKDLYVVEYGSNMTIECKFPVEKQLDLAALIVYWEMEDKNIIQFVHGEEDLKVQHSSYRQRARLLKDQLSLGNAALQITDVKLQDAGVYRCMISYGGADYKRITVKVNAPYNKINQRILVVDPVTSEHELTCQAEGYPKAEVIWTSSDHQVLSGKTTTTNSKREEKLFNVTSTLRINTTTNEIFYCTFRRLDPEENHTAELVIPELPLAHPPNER

SMILES	IC50
CSc1cc2oc(-c3cccc(-c4ccccc4)c3C)nc2cc1CN[C@@H](C(=O)O)[C@@H](C)O [Example 3, ((2-(2-methyl-[1,1′-biphenyl]-3-yl)-6-(methylthio)benzo[d]oxazol-5-yl)methyl)-D-allothreonine]	10 to 100 nM
Cc1cc2oc(-c3cccc(-c4ccccc4)c3C#N)nc2cc1CN1CCC[C@@H]1C(=O)O [Example 17, ((2-(2-cyano-[1,1′-biphenyl]-3-yl)-6-methylbenzo[d]oxazol-5-yl)methyl)-D-proline]	0.1 to 10 nM
Cc1c(-c2ccccc2)cccc1-c1nc2cc(CN3CCCCC3C(=O)O)c(C#N)cc2o1 (stereo not shown) [Example 26, 1-((6-cyano-2-(2-methyl-[1,1′-biphenyl]-3-yl)benzo[d]oxazol-5-yl)methyl)piperidine-2-carboxylic acid]	0.1 to 10 nM
CNc1cc2oc(-c3cccc(-c4ccccc4)c3C)nc2cc1CN1CCCCC1C(=O)O (stereo not shown) [Example 27, 1-((2-(2-methyl-[1,1′-biphenyl]-3-yl)-6-(methylamino)benzo[d]oxazol-5-yl)methyl)piperidine-2-carboxylic acid]	0.1 to 10 nM
Cc1c(-c2ccccc2)cccc1-c1nc2cc(CN3CCCCC3C(=O)O)c3c(c2o1)C(=O)CO3 (stereo not shown) [Example 73, 1-((2-(2-methyl-[1,1′-biphenyl]-3-yl)-8-oxo-7,8-dihydrobenzofuro[5,4-d]oxazol-5-yl)methyl)piperidine-2-carboxylic acid]	100 to 1000 nM
Cc1cc2oc(-c3cccc(-c4ccccc4)c3C#N)nc2cc1CN1CCC[C@H]1C(=O)O [Example 18, ((2-(2-cyano-[1,1′-biphenyl]-3-yl)-6-methylbenzo[d]oxazol-5-yl)methyl)-L-proline]	0.1 to 10 nM
CSc1cc2oc(-c3cccc(-c4ccccc4)c3C)nc2cc1CN1CCOC[C@H]1C(=O)O [Example 9, (S)-4-((2-(2-methyl-[1,1′-biphenyl]-3-yl)-6-(methylthio)benzo[d]oxazol-5-yl)methyl)morpholine-3-carboxylic acid]	0.1 to 10 nM
CC[C@@H](NCc1cc2nc(-c3cccc(-c4ccccc4)c3C)oc2cc1SC)C(=O)O [Example 11, (R)-2-(((2-(2-methyl-[1,1′-biphenyl]-3-yl)-6-(methylthio)benzo[d]oxazol-5-yl)methyl)amino)butanoic acid]	10 to 100 nM
Cc1c(-c2ccccc2)cccc1-c1nc2cc(CN3CCC[C@H]3C(=O)O)c(OS(C)(=O)=O)cc2o1 [Example 64, ((2-(2-methyl-[1,1′-biphenyl]-3-yl)-6-((methylsulfonyl)oxy)benzo[d]oxazol-5-yl)methyl)-L-proline]	0.1 to 10 nM
Cc1c(-c2ccccc2)cccc1-c1nc2cc(CN3CCCCC3C(=O)O)n3ncnc3c2o1 (stereo not shown) [Example 69, 1-((8-(2-methyl-[1,1′-biphenyl]-3-yl)oxazolo[5,4-c][1,2,4]triazolo[1,5-a]pyridin-5-yl)methyl)piperidine-2-carboxylic acid]	100 to 1000 nM
Cc1c(-c2ccccc2)cccc1-c1nc2cc(CN3COC[C@H]3C(=O)O)c(OC(F)F)cc2o1 [Example 53, (S)-3-((6-(difluoromethoxy)-2-(2-methyl-[1,1′-biphenyl]-3-yl)benzo[d]oxazol-5-yl)methyl)oxazolidine-4-carboxylic acid]	10 to 100 nM
CSc1cc2oc(-c3cccc(-c4ccccc4)c3C)nc2cc1CN1CCCC1(C)C(=O)O (stereo not shown) [Example 16, 2-methyl-1-((2-(2-methyl-[1,1′-biphenyl]-3-yl)-6-(methylthio)benzo[d]oxazol-5-yl)methyl)pyrrolidine-2-carboxylic acid]	0.1 to 10 nM
Cc1c(-c2ccccc2)cccc1-c1nc2cc(CN3CCCCC3C(=O)O)c3c(c2o1)C(=O)CO3 (stereo not shown) [Example 68, 1-((2-(2-methyl-[1,1′-biphenyl]-3-yl)-8-oxo-7,8-dihydrobenzofuro[5,4-d]oxazol-5-yl)methyl)piperidine-2-carboxylic acid]	100 to 1000 nM
Cc1c(-c2ccccc2)cccc1-c1nc2cc(CN3CCC[C@@H]3C(=O)O)c(OC(F)F)cc2o1 [Example 37, ((6-(difluoromethoxy)-2-(2-methyl-[1,1′-biphenyl]-3-yl)benzo[d]oxazol-5-yl)methyl)-D-proline]	10 to 100 nM
Cc1c(-c2ccccc2)cccc1-c1nc2cc(CN3CCC3C(=O)O)c(OC(F)F)cc2o1 (stereo not shown) [Example 48, 1-((6-(difluoromethoxy)-2-(2-methyl-[1,1′-biphenyl]-3-yl)benzo[d]oxazol-5-yl)methyl)azetidine-2-carboxylic acid]	0.1 to 10 nM
CSc1cc2oc(-c3cccc(-c4ccccc4)c3C)nc2cc1CN[C@H](CO)C(=O)O [Example 12, ((2-(2-methyl-[1,1′-biphenyl]-3-yl)-6-(methylthio)benzo[d]oxazol-5-yl)methyl)-D-serine]	0.1 to 10 nM
CSc1cc2oc(-c3cccc(-c4ccccc4)c3C)nc2cc1CN[C@@H](CO)C(=O)O [Example 13, ((2-(2-methyl-[1,1′-biphenyl]-3-yl)-6-(methylthio)benzo[d]oxazol-5-yl)methyl)-L-serine]	0.1 to 10 nM
Cc1c(-c2ccccc2)cccc1-c1nc2cc(CN3CCC[C@H]3C(=O)O)c(OC(F)(F)F)cc2o1 [Example 63, ((2-(2-methyl-[1,1′-biphenyl]-3-yl)-6-(trifluoromethoxy)benzo[d]oxazol-5-yl)methyl)-L-proline]	0.1 to 10 nM
Cc1c(-c2ccccc2)cccc1-c1nc2cc(CN[C@@H](Cc3ccc(O)cc3)C(=O)O)c(OC(F)F)cc2o1 [Example 32, ((6-(difluoromethoxy)-2-(2-methyl-[1,1′-biphenyl]-3-yl)benzo[d]oxazol-5-yl)methyl)-L-tyrosine hydrochloride]	0.1 to 10 nM
Cc1c(-c2ccccc2)cccc1-c1nc2cc(CN3CCOC[C@H]3C(=O)O)c(OCC(F)(F)F)cc2o1 [Example 58, (S)-4-((2-(2-methyl-[1,1′-biphenyl]-3-yl)-6-(2,2,2-trifluoroethoxy)benzo[d]oxazol-5-yl)methyl)morpholine-3-carboxylic acid]	10 to 100 nM
Cc1c(-c2ccccc2)cccc1-c1nc2cc(CN3CCCC[C@H]3C(=O)O)c(OCC(F)(F)F)cc2o1 [Example 54, (S)-1-((2-(2-methyl-[1,1′-biphenyl]-3-yl)-6-(2,2,2-trifluoroethoxy)benzo[d]oxazol-5-yl)methyl)piperidine-2-carboxylic acid]	10 to 100 nM
Cc1c(-c2ccccc2)cccc1-c1nc2cc(CN3CCCC3(C)C(=O)O)c(OC(F)F)cc2o1 (stereo not shown) [Example 46, 1-((6-(difluoromethoxy)-2-(2-methyl-[1,1′-biphenyl]-3-yl)benzo[d]oxazol-5-yl)methyl)-2-methylpyrrolidine-2-carboxylic acid]	0.1 to 10 nM
CSc1cc2oc(-c3cccc(-c4ccccc4)c3C#N)nc2cc1CN1CCC[C@H]1C(=O)O [Example 14, ((2-(2-cyano-[1,1′-biphenyl]-3-yl)-6-(methylthio)benzo[d]oxazol-5-yl)methyl)-L-proline]	0.1 to 10 nM
Cc1c(-c2ccccc2)cccc1-c1nc2cc(CN3CCC[C@H]3C(=O)O)c(S(C)(=O)=O)cc2o1 [Example 66, ((2-(2-methyl-[1,1′-biphenyl]-3-yl)-6-(methylsulfonyl)benzo[d]oxazol-5-yl)methyl)-L-proline]	0.1 to 10 nM
Cc1c(-c2nc3cc(CN4CCC[C@H]4C(=O)O)c(OC(F)F)cc3o2)cccc1-c1ccccc1C#N [Example 51, ((2-(2′-cyano-2-methyl-[1,1′-biphenyl]-3-yl)-6-(difluoromethoxy)benzo[d]oxazol-5-yl)methyl)proline]	10 to 100 nM
Cc1c(-c2ccc3c(c2)OCCO3)cccc1-c1nc2cc(CN3CCC[C@H]3C(=O)O)c(OC(F)F)cc2o1 [Example 47, ((6-(difluoromethoxy)-2-(3-(2,3-dihydrobenzo[b][1,4]dioxin-6-yl)-2-methylphenyl)benzo[d]oxazol-5-yl)methyl)-L-proline]	0.1 to 10 nM

same assay, conditions: Table 6, numeric values

SMILES	IC50
Cc1c(-c2ccccc2)cccc1-c1nc2cc(CN3CCC[C@H]3C(=O)O)c(F)cc2o1 [Example 24, ((6-fluoro-2-(2-methyl-[1,1′-biphenyl]-3-yl)benzo[d]oxazol-5-yl)methyl)-L-proline]	7.2 nM
Cc1c(-c2ccccc2)cccc1-c1nc2cc(CN3CCCC[C@H]3C(=O)O)c(F)cc2o1 [Example 25, (S)-1-((6-fluoro-2-(2-methyl-[1,1′-biphenyl]-3-yl)benzo[d]oxazol-5-yl)methyl)piperidine-2-carboxylic acid]	7.4 nM
Cc1c(-c2ccccc2)cccc1-c1nc2cc(CN[C@H](C(=O)O)[C@H](C)O)c(OC(F)F)cc2o1 [Example 31, ((6-(difluoromethoxy)-2-(2-methyl-[1,1′-biphenyl]-3-yl)benzo[d]oxazol-5-yl)methyl)-L-allothreonine]	3.2 nM
Cc1c(-c2ccccc2)cccc1-c1nc2cc(CN[C@@H](C(=O)O)[C@@H](C)O)c(OC(F)F)cc2o1 [Example 30, ((6-(difluoromethoxy)-2-(2-methyl-[1,1′-biphenyl]-3-yl)benzo[d]oxazol-5-yl)methyl)-D-allothreonine]	4.8 nM
CSc1cc2oc(-c3cccc(-c4ccccc4)c3C)nc2cc1CN1CCCC[C@H]1C(=O)O [Example 1, (S)-1-((2-(2-methyl-[1,1′-biphenyl]-3-yl)-6-(methylthio)benzo[d]oxazol-5-yl)methyl)piperidine-2-carboxylic acid]	1.9 nM
